Experimental data: US11459315B2, “Modulators of methyl modifying enzymes, compositions and uses thereof” (Constellation Pharmaceuticals, Inc., priority 2017, dated 2022)

system: H3K27me3 mark in HeLa cells (EZH2); experiment: H3K27me3 Alpha Hela Assay (AlphaLISA); format: cell-based; conditions: HeLa cell assay; Table 3 classes; read-out: EC50 Cellular Activity
Method in brief: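 HeLa cells (1,000/well) treated with ten 3-fold compound doses for 72 h at 37 °C; lysates extracted and H3K27me3 detected by AlphaLISA with anti-K27me3 acceptor beads, biotinylated anti-H3 (3 nM) and streptavidin donor beads. EC50 from DMSO-normalized dose-response curves; duplicate plate assessed viability.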

SMILES | EC50 [nM]
CSc1cc(C)[nH]c(=O)c1CNC(=O)c1c(C)n([C@H](C)C2OCC(NC3(C)COC3)CO2)c2ccccc12 (single isomer, unassigned) [drawing 227] | < 5
CSc1cc(C)[nH]c(=O)c1CNC(=O)c1c(C)n([C@H](C)C2OCC(NC3(C)COC3)CO2)c2ccccc12 (single isomer, unassigned) [drawing 228] | > 125
Cc1cc(Cl)c(CNC(=O)c2c(C)n([C@H](C)C3OCC(N(C)C)CO3)c3ccccc23)c(=O)[nH]1 (single isomer, unassigned) [drawing 229] | > 125
Cc1cc(Cl)c(CNC(=O)c2c(C)n([C@H](C)C3OCC(N(C)C)CO3)c3ccccc23)c(=O)[nH]1 (single isomer, unassigned) [drawing 230] | 25 to 125
CSc1cc(C)[nH]c(=O)c1CNC(=O)c1c(C)n([C@H](C)C2OCC(N(C)C)CO2)c2ccccc12 (single isomer, unassigned) [drawing 231] | > 125
CSc1cc(C)[nH]c(=O)c1CNC(=O)c1c(C)n([C@H](C)C2OCC(N(C)C)CO2)c2ccccc12 (single isomer, unassigned) [drawing 232] | < 5
COC1CCC([C@@H](C)n2c(C)c(C(=O)NCc3c(SC)cc(C)[nH]c3=O)c3ccccc32)CC1 (single isomer, unassigned) [drawing 248] | < 5
CSc1cc(C)[nH]c(=O)c1CNC(=O)c1c(C)n([C@H](C)C2CCC(O)CC2)c2ccccc12 (single isomer, unassigned) [drawing 251] | < 5
CSc1cc(C)[nH]c(=O)c1CNC(=O)c1c(C)n([C@H](C)C2CCC(N3CC(F)C3)CC2)c2ccccc12 (single isomer, unassigned) [drawing 255] | 5 to 25
COC1CN(C2CCC([C@@H](C)n3c(C)c(C(=O)NCc4c(SC)cc(C)[nH]c4=O)c4cccnc43)CC2)C1 (single isomer, unassigned) [drawing 259] | 5 to 25
CCOC1CN(C2CCC([C@@H](C)n3c(C)c(C(=O)NCc4c(SC)cc(C)[nH]c4=O)c4cccnc43)CC2)C1 (single isomer, unassigned) [drawing 261] | < 5
CSc1cc(C)[nH]c(=O)c1CNC(=O)c1c(C)n([C@H](C)C2CCC(NC3(C)CCOC3)CC2)c2ccccc12 (single isomer, unassigned) [drawing 269] | 5 to 25

same assay, conditions: Homo sapiens, HeLa, HeLa cell assay; Table 3 classes; read-out: EC50 Cellular Activity

SMILES | EC50 [nM]
CSc1cc(C)[nH]c(=O)c1CNC(=O)c1c(C)n([C@H](C)C2CCC(O)CC2)c2ccccc12 (single isomer, unassigned) [drawing 250] | < 5
CSc1cc(C)[nH]c(=O)c1CNC(=O)c1c(C)n([C@H](C)C2CCC(N3CC(OC(F)F)C3)CC2)c2ccccc12 (single isomer, unassigned) [drawing 252] | < 5
CSc1cc(C)[nH]c(=O)c1CNC(=O)c1c(C)n([C@H](C)C2CCC(N3CC(F)C3)CC2)c2ccccc12 (single isomer, unassigned) [drawing 254] | < 5
CSc1cc(C)[nH]c(=O)c1CNC(=O)c1c(C)n([C@H](C)C23CC(NC4COC4)(C2)C3)c2ccccc12 [drawing 234] | < 5
CSc1cc(C)[nH]c(=O)c1CNC(=O)c1c(C)n([C@H](C)C23CC(N(C)CC(F)(F)F)(C2)C3)c2ccccc12 [drawing 237] | 5 to 25
CSc1cc(C)[nH]c(=O)c1CNC(=O)c1c(C)n([C@H](C)C2CCN(CC(C)(C)O)CC2)c2ccccc12 [drawing 240] | 25 to 125
CSc1cc(C)[nH]c(=O)c1CNC(=O)c1c(C)n([C@H](C)C2CCN(CC(F)(F)F)CC2)c2ccccc12 [drawing 243] | < 5
CSc1cc(C)[nH]c(=O)c1CNC(=O)c1c(C)n([C@H](C)C2CCOCC2)c2ccccc12 [drawing 247] | < 5
CSc1cc(C)[nH]c(=O)c1CNC(=O)c1c(C)n([C@H](C)C2CCN(C3CC3)CC2)c2ncccc12 [drawing 256] | < 5
COC1CN(C2CCC([C@@H](C)n3c(C)c(C(=O)NCc4c(SC5CC5)cc(C)[nH]c4=O)c4ccccc43)CC2)C1 (some centres unmarked) [drawing 264] | 5 to 25
CCSc1cc(C)[nH]c(=O)c1CNC(=O)c1c(C)n([C@H](C)C2CCN(CC(F)(F)F)CC2)c2ccccc12 [drawing 265] | 25 to 125
Cc1cc(SC(F)F)c(CNC(=O)c2c(C)n([C@H](C)C3CCN(CC(F)(F)F)CC3)c3ccccc23)c(=O)[nH]1 [drawing 266] | 25 to 125
Cc1cc(SC2CCC2)c(CNC(=O)c2c(C)n([C@H](C)C3CCN(CC(F)(F)F)CC3)c3ccccc23)c(=O)[nH]1 [drawing 267] | 25 to 125

target: PRC2 containing wt EZH2 (Homo sapiens (Human), UniProt Q15910); experiment: EZH2 residence time assay (100-fold dilution of pre-formed enzyme-inhibitor complex); format: biochemical; conditions: not given
Method: EZH2 residence time assay: Compound residence times were assessed by monitoring the recovery of enzyme activity following a 100-fold dilution of pre-formed enzyme-inhibitor complex (dilution reaction), and comparing it to the activity of an undiluted control with the same final concentrations of all reagents (control reaction). Enzyme activity was measured by incorporation of ^3H-SAM into a biotinylated H3 peptide. […] For the control reaction, 0.202 nM PRC2 was pre-incubated with 1 μM activating peptide, 1.01 μM SAM, 1.01 μM ^3H-SAM, and compound at 6.06 times its Ki for 2 h in 138.6 μL of buffer, then the reaction was initiated by the addition of 1.4 μL 500 μM substrate peptide in water. Reactions were quenched at various time points spanning up to 10 hours, by transferring 8 μL aliquots from the reaction vessel to a plate containing 8 μL per well of STOP solution (50 mM Tris pH 8.5, 200 mM EDTA, 2 mM SAH). After the last time point, 12 μL of the quenched solutions were transferred to a streptavidin coated FlashPlate (PerkinElmer) containing 40 μL per well of STOP solution, incubated 1-8 h, washed, and read in a TopCount plate reader (PerkinElmer). A custom script was used to fit control reaction progress data to a straight line and dilution reaction progress data:
Where y is the product formed, t is the reaction time, vi is the initial velocity, vs is the steady state velocity, and kobs is the rate constant for the transition from the initial velocity phase of the curve to the steady state velocity phase of the curve. In fitting the dilution reaction progress data, vs was constrained to the slope of the line fitted to the control reaction progress data. The fitted value of kobs was then transformed into residence time:
Where τ is residence time, Ki is the inhibition constant, [EI] is the calculated equilibrium concentration of enzyme-inhibitor complex, [E] is the calculated equilibrium concentration of free enzyme, and [I] is the calculated equilibrium concentration of free inhibitor.

Chain of PRC2 containing wt EZH2 (Q15910 whole entry): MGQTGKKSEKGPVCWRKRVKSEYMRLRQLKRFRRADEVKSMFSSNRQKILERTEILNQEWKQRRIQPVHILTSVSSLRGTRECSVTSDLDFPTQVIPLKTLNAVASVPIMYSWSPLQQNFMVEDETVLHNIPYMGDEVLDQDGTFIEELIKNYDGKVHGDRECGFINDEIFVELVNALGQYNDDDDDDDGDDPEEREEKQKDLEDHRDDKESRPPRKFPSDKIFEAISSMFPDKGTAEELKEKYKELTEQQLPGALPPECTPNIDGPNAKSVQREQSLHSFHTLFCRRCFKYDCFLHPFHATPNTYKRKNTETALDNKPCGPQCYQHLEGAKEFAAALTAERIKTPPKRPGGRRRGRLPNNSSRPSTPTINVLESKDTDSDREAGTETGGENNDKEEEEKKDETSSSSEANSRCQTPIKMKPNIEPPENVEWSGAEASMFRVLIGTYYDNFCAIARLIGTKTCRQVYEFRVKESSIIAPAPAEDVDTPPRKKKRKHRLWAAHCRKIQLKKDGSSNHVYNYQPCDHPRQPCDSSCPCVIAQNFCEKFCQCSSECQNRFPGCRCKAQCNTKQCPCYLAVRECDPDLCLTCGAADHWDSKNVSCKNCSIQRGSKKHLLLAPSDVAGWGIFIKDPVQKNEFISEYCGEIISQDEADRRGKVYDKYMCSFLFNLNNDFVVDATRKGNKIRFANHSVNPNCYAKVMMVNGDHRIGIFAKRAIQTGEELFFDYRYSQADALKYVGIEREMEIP
Chain of PRC2 containing wt EZH2 (O75530 whole entry partner): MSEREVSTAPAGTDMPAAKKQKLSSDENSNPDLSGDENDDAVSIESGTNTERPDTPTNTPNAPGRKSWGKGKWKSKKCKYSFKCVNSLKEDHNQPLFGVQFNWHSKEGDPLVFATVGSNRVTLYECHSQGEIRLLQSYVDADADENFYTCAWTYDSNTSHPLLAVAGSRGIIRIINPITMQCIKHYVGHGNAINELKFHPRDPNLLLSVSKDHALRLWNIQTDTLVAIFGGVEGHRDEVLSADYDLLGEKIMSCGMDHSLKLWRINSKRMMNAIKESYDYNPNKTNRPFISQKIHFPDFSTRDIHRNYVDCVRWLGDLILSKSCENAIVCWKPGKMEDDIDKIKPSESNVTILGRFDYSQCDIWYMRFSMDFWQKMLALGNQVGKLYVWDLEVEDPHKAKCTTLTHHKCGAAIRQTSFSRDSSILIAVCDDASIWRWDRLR
Chain of PRC2 containing wt EZH2 (Q15022 whole entry partner): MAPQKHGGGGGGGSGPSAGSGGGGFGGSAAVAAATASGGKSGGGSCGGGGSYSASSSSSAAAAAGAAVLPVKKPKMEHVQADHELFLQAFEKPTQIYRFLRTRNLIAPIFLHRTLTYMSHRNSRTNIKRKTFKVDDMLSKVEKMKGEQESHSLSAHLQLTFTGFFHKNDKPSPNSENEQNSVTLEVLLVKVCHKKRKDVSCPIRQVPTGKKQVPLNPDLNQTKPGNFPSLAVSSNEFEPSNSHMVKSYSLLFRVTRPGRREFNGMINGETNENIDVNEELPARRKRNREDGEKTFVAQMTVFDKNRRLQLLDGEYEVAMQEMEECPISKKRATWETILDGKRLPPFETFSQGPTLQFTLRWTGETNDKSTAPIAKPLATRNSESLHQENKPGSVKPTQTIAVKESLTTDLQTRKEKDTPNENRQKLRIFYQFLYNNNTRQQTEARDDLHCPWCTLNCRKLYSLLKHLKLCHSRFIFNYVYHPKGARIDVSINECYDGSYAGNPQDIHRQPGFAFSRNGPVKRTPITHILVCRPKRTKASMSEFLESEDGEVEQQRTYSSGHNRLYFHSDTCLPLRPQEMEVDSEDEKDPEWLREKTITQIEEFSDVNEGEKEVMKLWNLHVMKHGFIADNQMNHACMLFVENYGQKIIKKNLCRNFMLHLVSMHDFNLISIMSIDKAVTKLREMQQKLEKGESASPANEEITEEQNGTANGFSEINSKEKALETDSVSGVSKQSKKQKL
Chain of PRC2 containing wt EZH2 (Q09028 whole entry partner): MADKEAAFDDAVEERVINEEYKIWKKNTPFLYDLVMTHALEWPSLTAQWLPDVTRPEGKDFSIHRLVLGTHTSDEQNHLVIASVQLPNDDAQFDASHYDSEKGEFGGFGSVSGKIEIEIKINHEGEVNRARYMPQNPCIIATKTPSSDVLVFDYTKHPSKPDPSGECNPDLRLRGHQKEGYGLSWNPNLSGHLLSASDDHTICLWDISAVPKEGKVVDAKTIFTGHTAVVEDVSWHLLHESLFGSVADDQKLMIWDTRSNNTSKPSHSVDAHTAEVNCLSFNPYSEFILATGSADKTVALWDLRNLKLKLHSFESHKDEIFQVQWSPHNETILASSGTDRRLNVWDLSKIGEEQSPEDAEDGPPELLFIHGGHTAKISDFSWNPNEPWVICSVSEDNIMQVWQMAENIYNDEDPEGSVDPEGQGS
Chain of PRC2 containing wt EZH2 (Q6ZN18 whole entry partner): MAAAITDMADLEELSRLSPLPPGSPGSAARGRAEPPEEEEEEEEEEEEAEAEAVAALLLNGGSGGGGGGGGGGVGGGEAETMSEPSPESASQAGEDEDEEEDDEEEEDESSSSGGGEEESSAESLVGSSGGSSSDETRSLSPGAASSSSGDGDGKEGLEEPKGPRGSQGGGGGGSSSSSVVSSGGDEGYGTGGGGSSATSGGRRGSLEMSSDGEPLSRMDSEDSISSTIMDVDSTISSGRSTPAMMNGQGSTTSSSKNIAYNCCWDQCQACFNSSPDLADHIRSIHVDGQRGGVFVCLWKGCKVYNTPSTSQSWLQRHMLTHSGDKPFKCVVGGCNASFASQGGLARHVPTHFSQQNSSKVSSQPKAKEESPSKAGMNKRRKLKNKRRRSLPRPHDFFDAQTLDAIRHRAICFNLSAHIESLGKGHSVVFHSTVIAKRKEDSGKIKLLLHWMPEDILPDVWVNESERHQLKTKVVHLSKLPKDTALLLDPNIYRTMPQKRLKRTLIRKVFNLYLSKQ

SMILES | residence time
CSc1cc(C)[nH]c(=O)c1CNC(=O)c1c(C)n([C@H](C)C2OCC(NC3(C)COC3)CO2)c2ccccc12 (single isomer, unassigned) [drawing 227] | A (value of greater than 35 hours)
CSc1cc(C)[nH]c(=O)c1CNC(=O)c1c(C)n([C@H](C)C2OCC(NC3(C)COC3)CO2)c2ccccc12 (single isomer, unassigned) [drawing 228] | D (a t value of less or equal than 0.5 hours)
Cc1cc(Cl)c(CNC(=O)c2c(C)n([C@H](C)C3OCC(N(C)C)CO3)c3ccccc23)c(=O)[nH]1 (single isomer, unassigned) [drawing 230] | D (a t value of less or equal than 0.5 hours)
CSc1cc(C)[nH]c(=O)c1CNC(=O)c1c(C)n([C@H](C)C2OCC(N(C)C)CO2)c2ccccc12 (single isomer, unassigned) [drawing 231] | D (a t value of less or equal than 0.5 hours)
CSc1cc(C)[nH]c(=O)c1CNC(=O)c1c(C)n([C@H](C)C2OCC(N(C)C)CO2)c2ccccc12 (single isomer, unassigned) [drawing 232] | B (a t value of greater than 5 hours but less or equal than 35 hours)
COC1CCC([C@@H](C)n2c(C)c(C(=O)NCc3c(SC)cc(C)[nH]c3=O)c3ccccc32)CC1 (single isomer, unassigned) [drawing 248] | > 2100 min
CSc1cc(C)[nH]c(=O)c1CNC(=O)c1c(C)n([C@H](C)C2CCC(O)CC2)c2ccccc12 (single isomer, unassigned) [drawing 250] | B (a t value of greater than 5 hours but less or equal than 35 hours)
CSc1cc(C)[nH]c(=O)c1CNC(=O)c1c(C)n([C@H](C)C2CCC(O)CC2)c2ccccc12 (single isomer, unassigned) [drawing 251] | A (value of greater than 35 hours)
CSc1cc(C)[nH]c(=O)c1CNC(=O)c1c(C)n([C@H](C)C2CCC(N3CC(OC(F)F)C3)CC2)c2ccccc12 (single isomer, unassigned) [drawing 252] | > 2100 min
CSc1cc(C)[nH]c(=O)c1CNC(=O)c1c(C)n([C@H](C)C2CCC(N3CC(F)C3)CC2)c2ccccc12 (single isomer, unassigned) [drawing 254] | A (value of greater than 35 hours)
CSc1cc(C)[nH]c(=O)c1CNC(=O)c1c(C)n([C@H](C)C2CCC(N3CC(F)C3)CC2)c2ccccc12 (single isomer, unassigned) [drawing 255] | C (a t value of greater than 0.5 hours but less or equal than 5 hours)
COC1CN(C2CCC([C@@H](C)n3c(C)c(C(=O)NCc4c(SC)cc(C)[nH]c4=O)c4cccnc43)CC2)C1 (single isomer, unassigned) [drawing 259] | 300 to 2100 min
CSc1cc(C)[nH]c(=O)c1CNC(=O)c1c(C)n([C@H](C)C2CCC(NC3(C)CCOC3)CC2)c2ccccc12 (single isomer, unassigned) [drawing 269] | > 2100 min
CSc1cc(C)[nH]c(=O)c1CNC(=O)c1c(C)n([C@H](C)C23CC(NC4COC4)(C2)C3)c2ccccc12 [drawing 234] | 300 to 2100 min
CSc1cc(C)[nH]c(=O)c1CNC(=O)c1c(C)n([C@H](C)C23CC(N(C)CC(F)(F)F)(C2)C3)c2ccccc12 [drawing 237] | 300 to 2100 min
CSc1cc(C)[nH]c(=O)c1CNC(=O)c1c(C)n([C@H](C)C2CCN(CC(C)(C)O)CC2)c2ccccc12 [drawing 240] | 300 to 2100 min
CSc1cc(C)[nH]c(=O)c1CNC(=O)c1c(C)n([C@H](C)C2CCN(CC(F)(F)F)CC2)c2ccccc12 [drawing 243] | 300 to 2100 min
CSc1cc(C)[nH]c(=O)c1CNC(=O)c1c(C)n([C@H](C)C2CCOCC2)c2ccccc12 [drawing 247] | 30 to 300 min
CSc1cc(C)[nH]c(=O)c1CNC(=O)c1c(C)n([C@H](C)C2CCN(C3CC3)CC2)c2ncccc12 [drawing 256] | 300 to 2100 min
COC1CN(C2CCC([C@@H](C)n3c(C)c(C(=O)NCc4c(SC5CC5)cc(C)[nH]c4=O)c4ccccc43)CC2)C1 (some centres unmarked) [drawing 264] | 300 to 2100 min
CCSc1cc(C)[nH]c(=O)c1CNC(=O)c1c(C)n([C@H](C)C2CCN(CC(F)(F)F)CC2)c2ccccc12 [drawing 265] | < 30 min
Cc1cc(SC(F)F)c(CNC(=O)c2c(C)n([C@H](C)C3CCN(CC(F)(F)F)CC3)c3ccccc23)c(=O)[nH]1 [drawing 266] | < 30 min
Cc1cc(SC2CCC2)c(CNC(=O)c2c(C)n([C@H](C)C3CCN(CC(F)(F)F)CC3)c3ccccc23)c(=O)[nH]1 [drawing 267] | 30 to 300 min

same assay, conditions: read-out: Residence Time

SMILES | residence time [min]
Cc1cc(Cl)c(CNC(=O)c2c(C)n([C@H](C)C3OCC(N(C)C)CO3)c3ccccc23)c(=O)[nH]1 (single isomer, unassigned) [drawing 229] | < 30
CCOC1CN(C2CCC([C@@H](C)n3c(C)c(C(=O)NCc4c(SC)cc(C)[nH]c4=O)c4cccnc43)CC2)C1 (single isomer, unassigned) [drawing 261] | 300 to 2100
